Measured values taken from ChEMBL document CHEMBL1135258, “Substrate spectrum of tyrocidine thioesterase probed with randomized peptide N-acetylcysteamine thioesters” (Bioorg Med Chem Lett, 2002).
Where a SMILES comes first, the peptide text is derived from it. [ ]: non-standard residue; d: D form. The star is where a group is joined. SCH2CH2NHAc = CC(=O)NCCS*; Orn = NCCC[C@H](N)C(=O)O

Experiments:
[1] = target: T1, Thioesterase GrsT homolog tycF (Brevibacillus brevis) (UniProt O30412); assay: Apparent kinetic constant (Kcat) for tyrocidine thioesterase amplified from Bacillus brevis (ATCC8185)
T1 sequence (whole entry): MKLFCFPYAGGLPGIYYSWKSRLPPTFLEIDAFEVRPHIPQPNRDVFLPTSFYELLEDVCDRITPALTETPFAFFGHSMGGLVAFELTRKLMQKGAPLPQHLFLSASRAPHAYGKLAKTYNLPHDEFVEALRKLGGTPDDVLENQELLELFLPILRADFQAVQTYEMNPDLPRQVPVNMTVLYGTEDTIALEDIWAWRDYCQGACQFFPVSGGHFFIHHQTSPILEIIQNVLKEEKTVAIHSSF

[2] = target: T1, Thioesterase GrsT homolog tycF (Brevibacillus brevis); assay: Catalytic efficiency (Kcat/Km) was determined; design: unit not given here

| k cat [1] | Ratio [2] | Compound |
| --- | --- | --- |
| 0.117 s⁻¹ | 0.23 | CC(=O)NCCSC(=O)[C@H](CC(C)C)NC(=O)[C@H](CCCN)NC(=O)[C@@H](NC(=O)[C@H](Cc1ccc(O)cc1)NC(=O)[C@H](CCC(N)=O)NC(=O)[C@H](CC(N)=O)NC(=O)[C@@H](Cc1ccccc1)NC(=O)[C@H](Cc1ccccc1)NC(=O)[C@H](C)NC(=O)[C@H](N)Cc1ccccc1)C(C)C (H-[dF]AF[dF]NQYV[Orn]L-SCH2CH2NHAc) |
| 0.12 s⁻¹ | 0.95 | CC(=O)NCCSC(=O)[C@H](CC(C)C)NC(=O)[C@H](CCCN)NC(=O)[C@@H](NC(=O)[C@H](Cc1ccc(O)cc1)NC(=O)[C@H](CCC(N)=O)NC(=O)[C@H](CC(N)=O)NC(=O)[C@H](Cc1c[nH]c2ccccc12)NC(=O)[C@H](Cc1ccccc1)NC(=O)[C@@H]1CCCN1C(=O)[C@H](N)Cc1ccccc1)C(C)C |
| 0.2 s⁻¹ | 0.22 | CC(=O)NCCSC(=O)[C@H](CC(C)C)NC(=O)[C@H](CCCN)NC(=O)[C@H](CC(N)=O)NC(=O)[C@H](Cc1ccc(O)cc1)NC(=O)[C@H](CCC(N)=O)NC(=O)[C@H](CC(N)=O)NC(=O)[C@@H](Cc1ccccc1)NC(=O)[C@H](Cc1ccccc1)NC(=O)[C@@H]1CCCN1C(=O)[C@H](N)Cc1ccccc1 |
| 0.135 s⁻¹ | 0.26 | CC(=O)NCCSC(=O)[C@H](CC(C)C)NC(=O)[C@H](CCCN)NC(=O)[C@@H](NC(=O)[C@H](Cc1ccc(O)cc1)NC(=O)[C@H](CCC(N)=O)NC(=O)[C@H](CC(N)=O)NC(=O)[C@@H](NC(=O)[C@H](Cc1ccccc1)NC(=O)[C@@H]1CCCN1C(=O)[C@H](N)Cc1ccccc1)[C@@H](C)O)C(C)C |
| 0.13 s⁻¹ | 0.57 | CC(=O)NCCSC(=O)[C@H](CC(C)C)NC(=O)[C@H](CCCN)NC(=O)[C@@H](NC(=O)[C@H](Cc1ccc(O)cc1)NC(=O)[C@H](CCC(N)=O)NC(=O)[C@H](CC(N)=O)NC(=O)[C@H](CO)NC(=O)[C@H](Cc1ccccc1)NC(=O)[C@@H]1CCCN1C(=O)[C@H](N)Cc1ccccc1)C(C)C |
| 0.733 s⁻¹ | 4.78 | CC(=O)NCCSC(=O)[C@H](CC(C)C)NC(=O)[C@H](CCCN)NC(=O)[C@@H](NC(=O)[C@H](Cc1ccc(O)cc1)NC(=O)[C@H](CCC(N)=O)NC(=O)[C@H](CC(N)=O)NC(=O)[C@@H](Cc1ccccc1)NC(=O)[C@H](Cc1ccccc1)NC(=O)[C@@H]1CCCN1C(=O)[C@H](N)Cc1ccccc1)C(C)C (stereo in doubt; form 1) |
| 0.2 s⁻¹ | 0.51 | CC(=O)NCCSC(=O)[C@H](CC(C)C)NC(=O)[C@H](CCCN)NC(=O)[C@@H](NC(=O)[C@H](Cc1ccc(O)cc1)NC(=O)[C@H](CCC(N)=O)NC(=O)[C@H](CC(N)=O)NC(=O)[C@H](CCCN=C(N)N)NC(=O)[C@H](Cc1ccccc1)NC(=O)[C@@H]1CCCN1C(=O)[C@H](N)Cc1ccccc1)C(C)C |
| 0.233 s⁻¹ | 0.92 | CC(=O)NCCSC(=O)[C@H](CC(C)C)NC(=O)[C@H](CCCN)NC(=O)[C@@H](NC(=O)[C@H](Cc1ccc(O)cc1)NC(=O)[C@H](CCC(N)=O)NC(=O)[C@H](CC(N)=O)NC(=O)[C@H](CCCCN)NC(=O)[C@H](Cc1ccccc1)NC(=O)[C@@H]1CCCN1C(=O)[C@H](N)Cc1ccccc1)C(C)C |
| 0.233 s⁻¹ | 0.083 | CC(=O)NCCSC(=O)[C@H](CC(C)C)NC(=O)[C@H](CCCN)NC(=O)[C@@H](NC(=O)[C@H](Cc1ccc(O)cc1)NC(=O)[C@H](CCC(N)=O)NC(=O)[C@H](CC(N)=O)NC(=O)[C@@H](Cc1ccccc1)NC(=O)[C@H](CC(N)=O)NC(=O)[C@@H]1CCCN1C(=O)[C@H](N)Cc1ccccc1)C(C)C |
| 0.133 s⁻¹ | 0.42 | CC(=O)NCCSC(=O)[C@H](CC(C)C)NC(=O)[C@H](CCCN)NC(=O)[C@@H](NC(=O)[C@H](Cc1ccc(O)cc1)NC(=O)[C@H](CCC(N)=O)NC(=O)[C@H](CC(N)=O)NC(=O)[C@H](CC(N)=O)NC(=O)[C@H](Cc1ccccc1)NC(=O)[C@@H]1CCCN1C(=O)[C@H](N)Cc1ccccc1)C(C)C |
| 0.11 s⁻¹ | 0.25 | CC(=O)NCCSC(=O)[C@H](CC(C)C)NC(=O)[C@H](CCCN)NC(=O)[C@@H](NC(=O)[C@H](Cc1ccc(O)cc1)NC(=O)[C@H](CCC(N)=O)NC(=O)[C@H](CC(N)=O)NC(=O)[C@H](CS)NC(=O)[C@H](Cc1ccccc1)NC(=O)[C@@H]1CCCN1C(=O)[C@H](N)Cc1ccccc1)C(C)C |
| 0.55 s⁻¹ | 2.65 | CC(=O)NCCSC(=O)[C@H](CC(C)C)NC(=O)[C@H](CCCN)NC(=O)[C@@H](NC(=O)[C@H](Cc1ccc(O)cc1)NC(=O)[C@H](CCC(N)=O)NC(=O)[C@H](CC(N)=O)NC(=O)[C@@H](Cc1ccccc1)NC(=O)[C@H](Cc1ccccc1)NC(=O)[C@@H]1CCCN1C(=O)[C@H](N)Cc1ccccc1)C(C)C (stereo in doubt; form 2) |
| 0.117 s⁻¹ | 0.084 | CC(=O)NCCSC(=O)[C@H](CC(C)C)NC(=O)[C@H](CCCN)NC(=O)[C@@H](NC(=O)[C@H](Cc1ccc(O)cc1)NC(=O)[C@H](CCC(N)=O)NC(=O)[C@H](CC(N)=O)NC(=O)[C@@H](Cc1ccccc1)NC(=O)[C@H](Cc1ccccc1)NC(=O)[C@H](CC(N)=O)NC(=O)[C@H](N)Cc1ccccc1)C(C)C |
| 0.12 s⁻¹ | 0.29 | CC(=O)NCCSC(=O)[C@H](CC(C)C)NC(=O)[C@H](CCCN)NC(=O)[C@@H](NC(=O)[C@H](Cc1ccc(O)cc1)NC(=O)[C@H](CCC(N)=O)NC(=O)[C@@H](NC(=O)[C@@H](Cc1ccccc1)NC(=O)[C@H](Cc1ccccc1)NC(=O)[C@@H]1CCCN1C(=O)[C@H](N)Cc1ccccc1)C(C)C)C(C)C |
| 0.123 s⁻¹ | 0.09 | CC[C@@H](C)[C@H](NC(=O)[C@H](CC(N)=O)NC(=O)[C@@H](Cc1ccccc1)NC(=O)[C@H](Cc1ccccc1)NC(=O)[C@@H]1CCCN1C(=O)[C@H](N)Cc1ccccc1)C(=O)N[C@@H](Cc1ccc(O)cc1)C(=O)N[C@H](C(=O)N[C@@H](CCCN)C(=O)N[C@@H](CC(C)C)C(=O)SCCNC(C)=O)C(C)C |
| 0.133 s⁻¹ | 0.36 | CC(=O)NCCSC(=O)[C@H](CC(C)C)NC(=O)[C@H](CCCN)NC(=O)[C@@H](NC(=O)[C@H](Cc1ccc(O)cc1)NC(=O)[C@H](CCC(N)=O)NC(=O)[C@H](CC(N)=O)NC(=O)CNC(=O)[C@H](Cc1ccccc1)NC(=O)[C@@H]1CCCN1C(=O)[C@H](N)Cc1ccccc1)C(C)C |
| 0.15 s⁻¹ | 0.28 | CC(=O)NCCSC(=O)[C@H](CC(C)C)NC(=O)[C@H](CCCN)NC(=O)[C@H](CCCN=C(N)N)NC(=O)[C@H](Cc1ccc(O)cc1)NC(=O)[C@H](CCC(N)=O)NC(=O)[C@H](CC(N)=O)NC(=O)[C@@H](Cc1ccccc1)NC(=O)[C@H](Cc1ccccc1)NC(=O)[C@@H]1CCCN1C(=O)[C@H](N)Cc1ccccc1 |
| 0.267 s⁻¹ | 0.8 | CSCC[C@H](NC(=O)[C@H](Cc1ccccc1)NC(=O)[C@@H]1CCCN1C(=O)[C@H](N)Cc1ccccc1)C(=O)N[C@@H](CC(N)=O)C(=O)N[C@@H](CCC(N)=O)C(=O)N[C@@H](Cc1ccc(O)cc1)C(=O)N[C@H](C(=O)N[C@@H](CCCN)C(=O)N[C@@H](CC(C)C)C(=O)SCCNC(C)=O)C(C)C |
| 0.183 s⁻¹ | 0.17 | CC(=O)NCCSC(=O)[C@H](CC(C)C)NC(=O)[C@H](CCCN)NC(=O)[C@@H](NC(=O)[C@H](Cc1ccc(O)cc1)NC(=O)[C@H](CCC(N)=O)NC(=O)[C@H](CC(N)=O)NC(=O)[C@H](Cc1ccc(O)cc1)NC(=O)[C@H](Cc1ccccc1)NC(=O)[C@@H]1CCCN1C(=O)[C@H](N)Cc1ccccc1)C(C)C |
| 0.167 s⁻¹ | 0.11 | CC(=O)NCCSC(=O)[C@H](CC(C)C)NC(=O)[C@H](CCCN)NC(=O)[C@@H](NC(=O)[C@H](Cc1ccc(O)cc1)NC(=O)[C@H](CCC(N)=O)NC(=O)[C@H](CC(N)=O)NC(=O)[C@@H](Cc1ccccc1)NC(=O)[C@H](Cc1ccccc1)NC(=O)[C@H](CC(=O)O)NC(=O)[C@H](N)Cc1ccccc1)C(C)C |
| 1.33 s⁻¹ | 0.72 | CC(=O)NCCSC(=O)[C@H](CC(C)C)NC(=O)[C@H](CCCN)NC(=O)[C@@H](NC(=O)[C@H](Cc1ccc(O)cc1)NC(=O)[C@H](CC(N)=O)NC(=O)[C@H](CC(N)=O)NC(=O)[C@@H](Cc1ccccc1)NC(=O)[C@H](Cc1ccccc1)NC(=O)[C@@H]1CCCN1C(=O)[C@H](N)Cc1ccccc1)C(C)C |
| 0.167 s⁻¹ | 0.23 | CC(=O)NCCSC(=O)[C@H](CC(C)C)NC(=O)[C@H](CCCN)NC(=O)[C@@H](NC(=O)[C@H](Cc1ccc(O)cc1)NC(=O)[C@H](CCC(N)=O)NC(=O)[C@H](CC(C)C)NC(=O)[C@@H](Cc1ccccc1)NC(=O)[C@H](Cc1ccccc1)NC(=O)[C@@H]1CCCN1C(=O)[C@H](N)Cc1ccccc1)C(C)C |
| 0.233 s⁻¹ | 0.058 | CC(=O)NCCSC(=O)[C@H](CC(C)C)NC(=O)[C@H](CCCN)NC(=O)[C@@H](NC(=O)[C@H](Cc1ccc(O)cc1)NC(=O)[C@H](CCC(N)=O)NC(=O)[C@H](CC(N)=O)NC(=O)[C@H](CC(=O)O)NC(=O)[C@H](Cc1ccccc1)NC(=O)[C@@H]1CCCN1C(=O)[C@H](N)Cc1ccccc1)C(C)C |
| 0.117 s⁻¹ | 0.43 | CC(=O)NCCSC(=O)[C@H](CC(C)C)NC(=O)[C@H](CCCN)NC(=O)[C@@H](NC(=O)[C@H](Cc1ccc(O)cc1)NC(=O)[C@H](CCC(N)=O)NC(=O)[C@H](CC(N)=O)NC(=O)[C@H](CCC(N)=O)NC(=O)[C@H](Cc1ccccc1)NC(=O)[C@@H]1CCCN1C(=O)[C@H](N)Cc1ccccc1)C(C)C |
| 0.16 s⁻¹ | 0.18 | CC(=O)NCCSC(=O)[C@H](CC(C)C)NC(=O)[C@H](CCCN)NC(=O)[C@@H](NC(=O)[C@H](Cc1ccc(O)cc1)NC(=O)[C@@H](NC(=O)[C@H](CC(N)=O)NC(=O)[C@@H](Cc1ccccc1)NC(=O)[C@H](Cc1ccccc1)NC(=O)[C@@H]1CCCN1C(=O)[C@H](N)Cc1ccccc1)C(C)C)C(C)C |
